# Assay results reported in a melting point compilation (Tetko et al.; mined from patent text by program, amines drawn as free bases though some values may be those of a salt).
row,Structure (SMILES),melting point
1,C[C@@H](N1CCN(c2ccc(OCC(F)(F)F)cc2)C1=O)[C@@]1(c2ccc(F)cc2F)CO1,131 to 132 °C
2,CC(=O)NC(C)C(=O)NCC(=O)O (racemic),79 to 82 °C
3,COc1ccc([N+](=O)[O-])cc1CNC(C)=O,158 to 160 °C
4,COc1nc(C(F)(F)F)cc(=O)n1-c1cc(OCCON=C(C)C)c(Br)cc1F,149 to 150 °C
5,N#CC=Cc1ccc(F)c(Cl)c1F,76 to 77 °C
6,CCCn1c(-c2ccc(C#C[Si](C(C)C)(C(C)C)C(C)C)cc2)nc2cc(C#N)c(C#N)cc21,242 to 243 °C
7,O=C(Cn1ccnc1)C12CC3CC(CC(C3)C1)C2,130 °C
8,O=C(Nc1cccc(C(F)(F)F)c1)c1cccc2cc(Oc3cc(CO)ncn3)ccc12,183 to 184 °C
9,COc1cc(C=O)ccc1OCc1ccc2ccccc2c1,107 to 108 °C
10,CCC1(C)CC(C#N)(NC(=O)Nc2ccccc2)C(C)C(C)(CC)N1 (centres undefined),167 to 170 °C
11,COc1cc(C(C)=O)ccc1OCCCN1C2CCC1CC(c1n[nH]c3cc(F)ccc13)C2 (centres undefined),157 to 158 °C
12,O=C(O)C(=O)c1cn(Cc2ccc(F)cc2)c2ccc(OCCc3ccc(F)cc3)cc12,171 to 173 °C
13,COc1ccc(Oc2cccc3ncnc(NC(=O)Nc4cccc(Br)c4)c23)cc1,249 to 251 °C
14,Cn1nc2nc(-c3ccc(N)c(C#N)c3)cc(C(F)(F)F)c2c1-c1ccccc1,295 °C
15,C=CCN(C(C)=O)c1cccc(C(=O)C=CN(C)C)c1,91 to 94 °C
16,CC(C)OC1(c2ccc(Cl)cc2)OC(c2ccncc2)=Nc2ccccc21 (centres undefined),114 to 115 °C
17,Nc1ccc(Sc2cccc3c2C(=O)c2cccc(Sc4ccc(N)cc4)c2C3=O)cc1,364 to 365 °C
18,COc1ccc(-c2coc3cc(O)ccc3c2=O)c(OC)c1,238 to 240 °C
19,CCCCCCCCCCCCNC(=O)c1cc(Br)c(OCC(=O)O)c(-c2ccccc2F)c1,128 to 138 °C
20,Cc1c(-c2ccc(OC(C)C)cc2)n(Cc2ccc(OCCO)cc2)c2ccc(OCc3ccccc3)cc12,129 to 131 °C
21,COc1ccc2ncc(CO)cc2c1,92 to 93 °C
22,O=c1[nH]c2cccnc2n1CCCN1CCC(C(O)(c2ccc(F)cc2)c2ccccn2)CC1 (centres undefined),140 to 144 °C
23,Nc1nc2c(sc(=O)n2Cc2ccc(Br)cc2)c(=O)[nH]1,> 320 °C
24,COc1cc(C(C)C)c2c(c1)S(=O)(=O)NC2=O,188 °C
25,C[C@H](Cn1ncnn1)n1cnc2cc3c(=O)n([C@H](C)Cn4ncnn4)cnc3cc2c1=O,255 to 256 °C

row,Structure (SMILES),melting point
1,CCOc1nn(C)c(C(F)(F)F)c1CS(=O)(=O)C1=NOC(C)(C)C1,124 to 125 °C
2,CCOC(=O)CCNCC(O)COc1cccc(C#N)c1 (centres undefined),95 °C
3,CC(C)Oc1ccccc1OCCCN1CCC(C(O)(c2ccc(F)cc2)c2ccc(F)cc2)CC1,75 to 79 °C
4,CCCn1nc(C(C)C)c(C(=O)OCOC(C)=O)c1Cc1ccc(-c2ccccc2-c2nnn[nH]2)cc1,58 to 63 °C
5,N#Cc1cc2nc(O)c(O)nc2c2[nH]nnc12,> 300 °C
6,Cc1nc(Cl)c([N+](=O)[O-])c(NCCOCCNC(=O)OC(C)(C)C)c1C,70 to 73 °C
7,NC1=NN(c2ccccn2)CC1,168 to 170 °C
8,Cc1c(-c2ccc(OCc3ccccc3)cc2)n(Cc2ccc(OCCCCl)cc2)c2ccc(OCc3ccccc3)cc12,130 to 132 °C
9,Cc1ccc(C2CC3C=CC2C3)n1CCC1CC(O)CC(=O)O1 (centres undefined),125 to 126 °C
10,CCCn1nc2c(N)nc3ccccc3c2c1CCNC(=O)C1CC1,215 to 217 °C
11,Cc1ccc2[nH]c3c(c2c1)CC(=O)Nc1cccnc1-3,> 330 °C
12,CCCCc1nc(C)n2nc(S)nc2c1Cc1ccc(-c2ccccc2)c(-c2nnn[nH]2)c1,135 to 137 °C
13,COc1cc(CCCC2OC(=O)NC2=O)ccc1OCc1nc(-c2ccccc2)no1 (centres undefined),110 to 111 °C
14,COc1ccccc1C=C(C=O)C(C=O)=Cc1ccccc1OC,163 to 164 °C
15,O=C1NC(=O)C(c2ccccc2)=C1Nc1ccc(OC(F)(F)F)cc1,206 °C
16,COc1cccc(Cn2c(C)c(CC(=O)O)c3cc(OCc4csc(-c5ccccc5)n4)ccc32)c1,162 to 163 °C
17,COc1cccc2ccc(Cl)nc12,90 to 92 °C
18,COc1ccc(C(c2ccc(OC)c(OCc3ccccc3)c2)n2cncn2)cc1OCc1ccccc1,96 to 99 °C
19,CC(N)=CC(=O)c1cccnc1,82 °C
20,Cc1ccc(-n2nc(C(F)(F)F)cc2-c2ccc(S(C)(=O)=O)cc2)cc1Cl,136 to 138 °C
21,N#Cc1ccccc1Sc1ccc(Cl)cc1,82 °C
22,COC(=O)COc1ccc(C(C)=O)cc1C,51 to 53 °C
23,CN(c1cccc2cc(C3=NCC4(CCN(S(C)(=O)=O)CC4)S3)[nH]c12)S(=O)(=O)c1cccs1,251 °C
24,Nc1ncc(-c2ccc(F)cc2)nc1C(=O)Nc1cccnc1,193 to 197 °C
25,CCON=C(C(C)=NOCc1ccccc1C(=NOC)C(=O)NC)c1ccc(Oc2ccc(Cl)cc2)cc1,126 to 129 °C

row,Structure (SMILES),melting point
1,CC(=O)c1ccc2c(c1)CCc1ccc(C(=O)O)cc1S2,230 to 232 °C
2,Cc1ccccc1COC1COC(CCl)OC1 (centres undefined),62 to 63 °C
3,O=C(NCc1ccsc1)N(O)CCO,114 to 115 °C
4,COc1ccc(C=O)c2cc(C)oc12,167 to 170 °C
5,CC(C)NC(=O)c1ccc(N2CCC(N3C(=O)OCc4ccccc43)CC2)c(S(C)(=O)=O)c1,240 to 242 °C
6,CCCCOC(=O)CNC(=O)c1ncccc1OCc1ccccc1,55 to 58 °C
7,CN(C)Cc1cc(NC(=O)OC(C)(C)C)c(N)cc1-c1ccc(F)cc1,97 to 125 °C
8,O=C1C(=O)N(Cc2ccc(Br)cc2)c2ccc(S(=O)(=O)N3CCCC3COc3ccccc3)cc21 (centres undefined),112 to 113 °C
9,COC(=O)Cn1sc2ccccc2c1=O,89 to 91 °C
10,CN1c2ccccc2Sc2cc(C=Cc3ccc(-c4ccc(C=Cc5ccc6c(c5)Sc5ccccc5N6C)cc4)cc3)ccc21,380 °C
11,CCOC(=O)Cc1nc2cc(OC)c(OC)cc2c(-c2ccc(OC)c(OC)c2)c1C(=O)OCC,146 to 147 °C
12,Cc1nc(-c2cccnc2)sc1-c1ccnc(Nc2ccc(N3CCOCC3)c(Cl)c2)n1,230 to 231 °C
13,O=C(O)COc1ccc(-c2c(Br)ccc3sc4ccccc4c23)cc1,210 °C
14,CNC(=O)C1(C)NCCc2c1n(F)c1ccccc21 (centres undefined),238 °C
15,CN(C)C(=O)C=C(c1ccc(-c2ccccc2)cc1)c1ccc(-c2ccccc2)cc1,121 °C
16,CCN1CC(C#CC2CC2)(C(F)(F)F)c2cc(Cl)ccc2NC1=O (centres undefined),186 to 188 °C
17,Cc1c2n(c(=O)c3cc(OC(=O)CN)cc(OC(=O)CN)c13)CCCC2,163 to 164 °C
18,CCCCCCC(=N)NC(=S)Nc1ccc(Cl)c(Cl)c1,89 to 90 °C
19,N#CC(C(=O)Nc1ccccc1)C(=O)c1ccc[nH]1 (centres undefined),207 to 209 °C
20,CCCCCCCCc1ccc(C#Cc2c3ccccc3c(C#Cc3ccc(CCCCCCCC)cc3)c3ccccc23)cc1,131 to 133 °C
21,CC(C)(C)c1cc(SCC(=O)Nc2c(Cl)cccc2Cl)cc(C(C)(C)C)c1O,168 to 170 °C
22,Cn1cc(S(C)(=O)=O)c(=O)c2sccc21,258 to 261 °C
23,COc1ccc(C(=O)Nc2ccc(C(C)=O)cc2)cc1,222 to 223 °C
24,CC1=CC2=C(C)C3(CC3)C(C)(O)C(=O)C2=C1 (centres undefined),138 to 140 °C
25,COC(=O)c1c(OCc2ccccc2)ccc2c1CC[C@@H](NC1CCC1)[C@@H]2O (relative stereo),117 to 119 °C

row,Structure (SMILES),melting point
1,N#Cc1cc2cc(C(O)(C(F)(F)F)C(F)(F)F)ccc2[nH]1,183 to 185 °C
2,CCCCCCOc1c(OC)cc(N)c2nccc(C)c12,69 to 71 °C
3,CCOC(=O)c1ccc(-c2cnc3c(c2)N(Cc2cc(F)ccc2F)CCN3)cc1,173 to 174 °C
4,CCCOc1ccc(C(=O)Cn2cncn2)cc1,97 to 99 °C
5,CCOC(=O)c1cc(=O)c2cc(O)ccc2s1,217 to 218 °C
6,Cc1nnc(-c2ccc3occ(-c4ccc(C#N)cc4)c3c2)o1,201 to 202 °C
7,CS(=O)(=O)n1cc(C2CCN(S(=O)(=O)N3CCCC[C@@H]3C(=O)NO)CC2)c2cc(C#N)ccc21,143 to 144 °C
8,COc1ccc(N2CCN(C[C@@H](O)COc3cccc(-c4noc5ccsc45)c3)CC2)cc1,110 to 113 °C
9,Cc1cc(NC(=O)CC(C)(C)C)c(C)c2c1OC(C)(C)C2c1ccc(C(C)C)cc1 (centres undefined),118 to 119 °C
10,CC(C)(C)c1cc(NC(=O)Nc2ccc(OCCN3CCOCC3)c3ccccc23)[nH]n1,206 to 207 °C
11,Cc1cn(C(C)C(=O)N(C)C)nc1-c1ccccc1Cl (centres undefined),98.5 to 100 °C
12,CCOC(=O)C(NC(=O)CS(C)=O)C(=O)OCC (centres undefined),85 to 87 °C
13,Cc1nc2c(O[C@H]3c4ccccc4C[C@@H]3O)cccn2c1CO,174 to 175 °C
14,COc1cc(-c2nc(-c3ccc(N(C)C)cc3)c(C)o2)ccc1O,170 to 173 °C
15,O=C(O)CCc1cn(Cc2ccc(OCc3ccccn3)cc2)cc1-c1ccccc1,109 to 110 °C
16,N#Cc1cc([N+](=O)[O-])ccc1Oc1ccc(Cl)cc1,163 to 164 °C
17,COC(=O)c1cc(C)nn1-c1ncc(Cl)cc1Cl,97 to 98 °C
18,CC(=O)N(C)Cc1ccc(CCn2cnc3cc(-c4ccc(Cl)cc4)sc3c2=O)cc1,176 to 178 °C
19,Cc1sc2c(c1C)C(c1ccc(Cl)cc1)=N[C@@H](CC(=O)Nc1ccc(O)cc1)c1nnc(C)n1-2,215 to 220 °C
20,CCCCn1cnnc1SC(=O)c1ccoc1,102 to 105 °C
21,CNC(=O)NCCN1CCC(Nc2nc3ccccc3n2Cc2ccc(F)cc2)CC1,231 °C
22,CC(C)(C)OC(=O)C(=NO)C(=O)CCOCc1ccccc1,98 to 100 °C
23,CC(C)(C)c1cnnc(NN)n1,117 to 118 °C
24,Oc1ccccc1-c1nnco1,112 to 113 °C
